Patent US20120196858A1, “METHOD OF PROMOTING APOPTOSIS AND INHIBITING METASTASIS” (Poniard Pharmaceuticals ,Inc., priority 2009, published 2012)

Tested on: caspase 3 cleavage in 4T1 cells
Assay: Cleaved caspase 3 immunoblotting of cell lysates
Assay type: cell-based, murine
Conditions: 24 h
Text: Immunoblotting: Protein extracts of cells were made using lysis buffer containing 1% Triton X-100, 1% sodium deoxycholate, and 0.1% SDS and were separated by 4-12% SDS-PAGE (sodium dodecyl sulfate polyacrylamide gel electrophoresis) and sequential immunoblotting performed as described in Mitra S K, Lim S T, Chi A, Schlaepfer D D. Intrinsic focal adhesion kinase activity controls orthotopic breast carcinoma metastasis via the regulation of urokinase plasminogen activator expression in a syngeneic tumor model. Oncogene 2006; 25:4429-40. Relative expression levels and phospho-specific antibody reactivity were measured by densitometry analyses of blots using Image J (version 1.42q). Inhibition of FAK and p130Cas tyrosine phosphorylation was quantified by calculating the ratio of pY397 FAK protein to total FAK. […]
Cell pellets were resuspended in 300 p. […] Samples were analyzed by flow cytometry (FACSCalibur, Becton-Dickinson) and cell cycle analyses were performed by ModFit LT3.2 software (Verity software house). Hypodiploid DNA content as a measure of cell apoptosis was detected by PI staining as described ^29. […] Apoptosis was calculated to be the percent of annexin V-positive cells. In the soft agar assays, apoptosis was quantified by visual inspection of at least 200 cells and was defined as the appearance of membrane blebbing or cell shrinkage. […]

CNC(=O)c1ccccc1Nc1cc(Nc2ccc(N3CCOCC3)cc2OC)ncc1C(F)(F)F [PND-1186]
cleaved caspase 3, adherent cells: not detectable | cleaved caspase 3, suspended cells: increased in PND-1186-treated suspended cells (maximal at 0.4 μM)
